# Assay results reported in patent publication US20050169994A1 (priority 2003, published 2005).
# Where a name gives a salt, the structure may show the parent alone. Read-outs that look alike come from different tables or passages of the source.
# What was measured:
# [1] = Solubility in water at 25° C. over time, with pH of filtered solution
# Description: Aliquots were taken out at various time-point, filtered through 0.45 μm Acrodisc GHP filter.
# [2] = R and S isomers, systemic circulation; cited from earlier work
# [3] = pH 7.1
# [4] = cited from earlier work
# [5] = pH-solubility profile for carvedilol; details: aqueous medium
structure (smiles),measurement,setting,value
"COc1ccccc1OCCNCC(O)COc1cccc2[nH]c3ccccc3c12.O=P(O)(O)O (stereo not drawn) [Phosphate salt, Carvedilol dihydrogen phosphate]",aqueous solubility compared with free base,[1]; in words,much better aqueous solubility than the free base
COc1ccccc1OCCNCC(O)COc1cccc2[nH]c3ccccc3c12 (stereo not drawn) [Carvedilol],alpha elimination phase,[2],about 1.5 hours
same,solubility,[3],20 to 30 µg/mL
same,solubility,[4]; above a pH of 9.0,< 1 µg/mL
same,saturation solubility,"[4]; pH=5, room temperature",about 100 μg/mL
same,saturation solubility,"[4]; pH=7, room temperature",about 23 μg/mL
same,solubility thermodynamic,[5],≤ 100 µg/mL
"COc1ccccc1OCCNCC(O)COc1cccc2[nH]c3ccccc3c12 (stereo not drawn) [hydrochloride salt of carvedilol, carvedilol hydrochloride]",solubility in acidic medium,[4]; salt generated in situ in acidic medium simulating gastric fluid,less soluble
"COc1ccccc1OCCNCC(O)COc1cccc2[nH]c3ccccc3c12 (stereo not drawn) [HBr salt, carvedilol hydrobromide]",aqueous solubility compared with free base,[1],much better aqueous solubility than the free base
